Measured values taken from patent publication US9050346B2, “Bromodomain inhibitors” (AbbVie Inc., priority 2013, dated 2015).

Assays:
BRD4 (BDI_K57-E168) = biological target: T1, BRD4 (BDI_K57-E168) (Homo sapiens, UniProt O60885); experiment: TR-FRET bromodomain binding assay, BRD4 first bromodomain; conditions: His-tagged BD1, 100 nM Alexa647 probe; Ki calculated from IC50; dilution protocol A-G
T1 construct: BD1: amino acids K57-E168; made in house
How it was run: (§1)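 His-tagged BRD4 BD1 (K57-E168) or BD2 (8 nM) with Eu-anti-His antibody and Alexa647-labeled BET-inhibitor probe (100 nM for BDI, 30 nM for BDII), pH 6.0 phosphate buffer, 2% DMSO, 1 h at room temperature. TR-FRET (Ex 340, Em 495/520); IC50 by 4-parameter fit, converted to Ki using probe Kd and concentration.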

BRD4 (BDII_E352-M457) = biological target: T2, BRD4 (BDII_E352-M457) (Homo sapiens, UniProt O60885); experiment: TR-FRET bromodomain binding assay, BRD4 second bromodomain
T2 construct: made in house
How it was run: as §1

[1] = test system: breast cancer cell line MX-1; experiment: MX-1 cell line proliferation assay (3-day, Cell Titer Glo); type: cell-based; conditions: Homo sapiens, MX1, MX-1 cells, 72 h, top concentration 3 μM, read-out: Cellular proliferation: EC50
Method: The impact of compounds of the Examples on cancer cell proliferation was determined using the breast cancer cell line MX-1 (ATCC) in a 3-day proliferation assay and the data are reported in Table 1. MX-1 cells were maintained in RPMI 1640 medium (Sigma) supplemented with 10% FBS at 37 C.° and an atmosphere of 5% CO2. For compound testing, MX-1 cells were plated in 96-well black bottom plates at a density of 5000 cells/well in 90 μL of culture media and incubated at 37° overnight to allow cell adhesion and spreading. Compound dilution series were prepared in DMSO via a 3-fold serial dilution from 3 mM to 0.1 μM. The DMSO dilution series were then diluted 1:100 in phosphate buffered saline, and 10 μL of the resulted solution were added to the appropriate wells of the MX-1 cell plate. The final compound concentrations in the wells were 3, 1, 0.3, 0.1, 0.03, 0.01, 0.003, 0.001, 0.0003 and 0.0001 μM.
Luminescence readings from the Cell Titer Glo assay were normalized to the DMSO treated cells and analyzed using the GraphPad Prism software with sigmoidal curve fitting to obtain EC50s. The minimum significant ratio (MSR) was determined to evaluate assay reproducibility (Eastwood et al., (2006) J Biomol Screen, 11: 253-261).

SMILES | Ki (BRD4 (BDI_K57-E168)) [nM] | Ki (BRD4 (BDII_E352-M457)) [nM] | EC50 [1] [nM]
Cc1[nH]c(-c2ccccc2Oc2ccccc2)c2cc(C(=O)NCC3CCOC3)[nH]c(=O)c12 (stereo not drawn) [Example 36, 3-methyl-4-oxo-1-(2-phenoxyphenyl)-N-(tetrahydrofuran-3-ylmethyl)-4,5-dihydro-2H-pyrrolo[3,4-c]pyridine-6-carboxamide] | 8.83 | 20.9 | 188
Cc1[nH]c(-c2ccccc2Oc2ccccc2)c2cc(CO)[nH]c(=O)c12 [Example 18, 6-(hydroxymethyl)-3-methyl-1-(2-phenoxyphenyl)-2H-pyrrolo[3,4-c]pyridin-4(5H) one] | 15.1 | 31.6 | 90.1
COC(=O)C1Cc2c(-c3ccccc3Oc3ccccc3)[nH]c(C)c2C(=O)N1 (stereo not drawn) [Example 97, methyl 3-methyl-4-oxo-1-(2-phenoxyphenyl)-4,5,6,7-tetrahydro-2H-pyrrolo[3,4-c]pyridine-6-carboxylate] | 24.3 | 157 | > 3000
Cc1[nH]c(-c2ccccc2Oc2ccccc2)c2cc(-c3nc(Cc4cccnc4)no3)[nH]c(=O)c12 [Example 66, 3-methyl-1-(2-phenoxyphenyl)-6-(3-(pyridin-3-ylmethyl)-1,2,4-oxadiazol-5-yl)-2H-pyrrolo[3,4-c]pyridin-4(5H)-one] | 9.31 | 151 | 81
Cc1[nH]c(-c2cc(F)ccc2OCC2CC2)c2cc(-c3nc(-c4cnccn4)no3)[nH]c(=O)c12 [Example 71, 1-(2-(cyclopropylmethoxy)-5-fluorophenyl)-3-methyl-6-(3-(pyrazin-2-yl)-1,2,4-oxadiazol-5-yl)-2H-pyrrolo[3,4-c]pyridin-4(5H)-one] | 38.5 | 659 | 204
CCOC(=O)c1cc2c(-c3cc(N)ccc3Oc3ccc(F)cc3F)[nH]c(C)c2c(=O)[nH]1 [Example 4, ethyl 1-[5-amino-2-(2,4-difluorophenoxy)phenyl]-3-methyl-4-oxo-4,5-dihydro-2H-pyrrolo[3,4-c]pyridine-6-carboxylate] | 12.3 | 91.3 | 77.6

Stronger by Ki (BRD4 (BDI_K57-E168)), values ahead:

Ki (BRD4 (BDI_K57-E168)) [nM] | Ki (BRD4 (BDII_E352-M457)) [nM] | EC50 [1] [nM] | SMILES
5.82 | 16.2 | 410 | Cc1[nH]c(-c2cc(NS(=O)(=O)CC(F)(F)F)ccc2Oc2ccccc2)c2cn[nH]c(=O)c12 [Example 76, 2,2,2-trifluoro-N-[3-(7-methyl-1-oxo-2,6-dihydro-1H-pyrrolo[3,4-d]pyridazin-5-yl)-4-phenoxyphenyl]ethanesulfonamide]
5.21 | 48.5 | 53.6 | Cc1[nH]c(-c2ccccc2Oc2ccccc2)c2cc(C(=O)NC3CCN(C)CC3)[nH]c(=O)c12 [Example 35, 3-methyl-N-(1-methylpiperidin-4-yl)-4-oxo-1-(2-phenoxyphenyl)-4,5-dihydro-2H-pyrrolo[3,4-c]pyridine-6-carboxamide]
3.43 | 70.2 | 138 | Cc1[nH]c(-c2ccccc2Oc2ccccc2)c2cc(C(=O)NC3CN(C)C3)[nH]c(=O)c12 [Example 49, 3-methyl-N-(1-methylazetidin-3-yl)-4-oxo-1-(2-phenoxyphenyl)-4,5-dihydro-2H-pyrrolo[3,4-c]pyridine-6-carboxamide]
3.41 | 29.3 | 71.6 | CCOC(=O)c1cc2c(-c3cc(NS(C)(=O)=O)ccc3Oc3ccc(F)cc3F)[nH]c(C)c2c(=O)[nH]1 [Example 9, ethyl 1-{2-(2,4-difluorophenoxy)-5-[(methylsulfonyl)amino]phenyl}-3-methyl-4-oxo-4,5-dihydro-2H-pyrrolo[3,4-c]pyridine-6-carboxylate]
2.02 | 16 | 329 | Cc1[nH]c(-c2ccccc2Oc2ccccc2)c2cc(C(=O)NC[C@H]3CCNC3)[nH]c(=O)c12 [Example 58, (S)-3-methyl-4-oxo-1-(2-phenoxyphenyl)-N-(pyrrolidin-3-ylmethyl)-4,5-dihydro-2H-pyrrolo[3,4-c]pyridine-6-carboxamide]
